{
  "source": "patent US4253998A",
  "about": "“Peptides related to somatostatin” (American Home Products Corporation, priority 1979, dated 1981)",
  "type_in_all_cases": "in vivo, rat",
  "key": {"[1]": {"tested_on": "glucagon", "test": "Inhibition of glucagon secretion in arginine-treated, pentobarbital-anesthetized rats (radioimmunoassay)", "description": "(§1) Male albino rats are divided into two groups (e.g. nine rats per group). Each animal is administered sodium pentobarbital (Nembutal), I. P., at a dose of 50 mg/kg. Fifteen minutes later, one group received a S. C. injection of the test compound in saline (typically 5 to 200 μg/kg.), and the other group (control) receives saline alone. Ten minutes later, each animal is given a 0.5 ml. injection of arginine (300 mg/ml., pH 7.2) into the heart. Five minutes after receipt of the arginine, the animals are decapitated and blood is collected into Trasylol-EDTA. An appropriate aliquot of each sample is assayed for GH, glucagon, and insulin by radioimmunossay. GH is determined by the method of Sinha et al., Endocrinol., 91, 784 (1972); glucagon is determined by the method of Caloona and Unger, \"Methods of Hormone Radioimmunoassay,\" Jaffe et al., Ed., Academic Press, New York, 1974, pages 317-330; and insulin is determined by the method of Hales and Randle, Biochem. J., 88, 137 (1963). The blood concentrations of growth hormone, glucagon, and insulin for the animals given the test compound are compared by standard statistical methods to the blood concentrations for the control group."}, "[2]": {"tested_on": "growth hormone (GH)", "test": "Inhibition of growth hormone secretion in arginine-treated, pentobarbital-anesthetized rats (radioimmunoassay)", "description": "as §1"}, "[3]": {"tested_on": "insulin", "test": "Inhibition of insulin secretion in arginine-treated, pentobarbital-anesthetized rats (radioimmunoassay)", "description": "as §1"}, "[4]": {"tested_on": "growth hormone (GH)", "test": "Prolonged inhibition of growth hormone in rats (plasma GH 2 to 6 hours after S.C. injection)", "conditions": "for Plasma GH: 1000 μg/kg S.C.", "description": "Albino male rats are arranged in two groups (nine rats per group). One group received a subcutaneous (S. C.) injection of the test compound (typically 1 mg/kg.) in saline, and the other group received a S. C. injection of saline alone (control). […] P. injection of sodium pentobarbital, 50 mg/kg. At the end of the experiment, blood samples are taken from each animal by cardiac puncture, and each sample is mixed with Trasylol-EDTA. An aliquot of each sample is assayed for GH by radioimmunoassay. The blood growth hormone concentrations for the animals receiving the test compound are compared by standard statistical methods to the growth hormone concentrations for the control animals. Compounds considered long-acting product a significant decrease in blood growth hormone concentration at a dose of 1 mg/kg. at least two hours after injection."}},
  "note": "Structures can show the parent of a compound that is named as a salt. Bridge positions count the residues as written; N and C are the ends. Square brackets hold non-standard residues; d marks the D form. Peptide text beside a SMILES is read from it.",
  "data": [
    {"smiles": "C[C@@H](O)[C@@H]1NC(=O)[C@H](CCCCN)NC(=O)[C@@H](Cc2c[nH]c3ccccc23)NC(=O)[C@H](Cc2ccccc2)NC(=O)[C@H](Cc2ccccc2)NC(=O)[C@H](Cc2c[nH]cn2)NC(=O)[C@H](Cc2c[nH]cn2)NC(=O)[C@@H](N)CSSC[C@@H](C(=O)O)NC(=O)[C@@H](CO)NC(=O)[C@H]([C@@H](C)O)NC(=O)[C@H](Cc2ccccc2)NC1=O", "note": "[Example 6, L-Cysteinyl-L-Histidyl-L-Histidyl-L-Phenylalanyl-L-Phenylalanyl-D-Tryptophyl-L-Lysyl-L-Threonyl-L-Phenylalanyl-L-Threonyl-D-Seryl-L-Cysteine Cyclic (1→12) Disulfide Triacetate Salt] (H-CHHFF[dW]KTFT[dS]C-OH; disulfide 1-12)", "values": [
      {"measurement": "Glucagon", "setting": "[1]; Exp. F, 100 μg/kg S.C., control 162 ± 29, p < 0.01", "result": "55 ± 12", "unit": "pg/mL"},
      {"measurement": "GH", "setting": "[2]; Exp. F, 100 μg/kg S.C., control 363 ± 74, p < 0.01", "result": "83 ± 16", "unit": "ng/mL"},
      {"measurement": "Insulin", "setting": "[3]; Exp. F, 100 μg/kg S.C., control 75 ± 8, not significant", "result": "60 ± 10", "unit": "μU/ml"}
    ]},
    {"smiles": "C[C@@H](O)[C@@H]1NC(=O)[C@H](CCCCN)NC(=O)[C@@H](Cc2c[nH]c3ccccc23)NC(=O)[C@H](Cc2ccccc2)NC(=O)[C@H](Cc2ccccc2)NC(=O)[C@H](CCC(=O)O)NC(=O)[C@H](CCCNC(=N)N)NC(=O)[C@@H](N)CSSC[C@@H](C(=O)O)NC(=O)[C@@H](Cc2ccc(O)cc2)NC(=O)[C@H]([C@@H](C)O)NC(=O)[C@H](Cc2ccccc2)NC1=O", "note": "[Example 4, L-Cysteinyl-L-Arginyl-L-α-Glutamyl-L-Phenylalanyl-L-Phenylalanyl-D-Tryptophyl-L-Lysyl-L-Threonyl-L-Phenylalanyl-L-Threonyl-D-Tyrosyl-L-Cysteine Cyclic (1→12) Disulfide Triacetate Salt] (H-CREFF[dW]KTFT[dY]C-OH; disulfide 1-12)", "values": [
      {"measurement": "Glucagon", "setting": "[1]; Exp. E, 200 μg/kg S.C., control 62 ± 10, not significant", "result": "41 ± 14", "unit": "pg/mL"},
      {"measurement": "GH", "setting": "[2]; Exp. E, 200 μg/kg S.C., control 354 ± 57, p < 0.01", "result": "81 ± 6", "unit": "ng/mL"},
      {"measurement": "Insulin", "setting": "[3]; Exp. E, 200 μg/kg S.C., control 336 ± 31, p < 0.01", "result": "128 ± 33", "unit": "μU/ml"}
    ]},
    {"smiles": "C[C@@H](O)[C@@H]1NC(=O)[C@H](CCCCN)NC(=O)[C@@H](Cc2c[nH]c3ccccc23)NC(=O)[C@H](Cc2ccccc2)NC(=O)[C@H](Cc2ccccc2)NC(=O)[C@H](Cc2c[nH]cn2)NC(=O)[C@H](CCCNC(=N)N)NC(=O)[C@@H](N)CSSC[C@@H](C(=O)O)NC(=O)[C@@H](Cc2ccc(O)cc2)NC(=O)[C@H]([C@@H](C)O)NC(=O)[C@H](Cc2ccccc2)NC1=O", "note": "[Example 2, L-Cysteinyl-L-Arginyl-L-Histidyl-L-Phenylalanyl-L-Phenylalanyl-D-Tryptophyl-L-Lysyl-L-Threonyl-L-Phenylalanyl-L-Threonyl-D-Tyrosyl-L-Cysteine Cyclic (1→12) Disulfide] (H-CRHFF[dW]KTFT[dY]C-OH; disulfide 1-12)", "values": [
      {"measurement": "Glucagon", "setting": "[1]; Exp. A, 100 μg/kg S.C., control 61 ± 8, p < 0.01", "result": "22 ± 7", "unit": "pg/mL"},
      {"measurement": "Glucagon", "setting": "[1]; Exp. B, 400 μg/kg S.C., control 41 ± 5, p < 0.01", "result": "9 ± 1", "unit": "pg/mL"},
      {"measurement": "GH", "setting": "[2]; Exp. A, 100 μg/kg S.C., blood 15 min after dose, 5 min after arginine, control 508 ± 13, p < 0.05", "result": "181 ± 47", "unit": "ng/mL"},
      {"measurement": "GH", "setting": "[2]; Exp. B, 400 μg/kg S.C., control 234 ± 36, p < 0.01", "result": "67 ± 13", "unit": "ng/mL"},
      {"measurement": "Insulin", "setting": "[3]; Exp. A, 100 μg/kg S.C., control 298 ± 33, p < 0.05", "result": "154 ± 39", "unit": "μU/ml"},
      {"measurement": "Insulin", "setting": "[3]; Exp. B, 400 μg/kg S.C., control 187 ± 21, p < 0.01", "result": "70 ± 23", "unit": "μU/ml"},
      {"measurement": "Plasma GH", "setting": "[4]; Exp. C, 2 hours, control 213 ± 14, p < 0.001", "result": "89 ± 5", "unit": "ng/mL"},
      {"measurement": "Plasma GH", "setting": "[4]; Exp. C, 4 hours, control 182 ± 12, p < 0.001", "result": "101 ± 13", "unit": "ng/mL"},
      {"measurement": "Plasma GH", "setting": "[4]; Exp. D, 5 hours, control 337 ± 36, p < 0.05", "result": "230 ± 31", "unit": "ng/mL"},
      {"measurement": "Plasma GH", "setting": "[4]; Exp. D, 6 hours, control 234 ± 24, not significant", "result": "172 ± 34", "unit": "ng/mL"},
      {"measurement": "Prolonged inhibition of growth hormone / period of action (in words)", "setting": "[4]; rat, in vivo", "result": "shows prolonged inhibition of growth hormone"}
    ]}
  ]
}
